Results: US12440471B2, “Compositions and methods for the treatment of bronchopulmonary dysplasia (BPD) and BPD-associated pulmonary hypertension” (AyuVis Research, Inc., priority 2021, dated 2025)
One block for each molecule: values may come before it.

Key:
[1] = tested on: hyperoxia-exposed BPD mouse model; assay: BPD mouse model: bronchoalveolar lavage fluid (BALF) analysis; assay type: in vivo; details: 10 mg/kg; vs BPD group
Source text: (§1) For the hyperoxia experiment, newborn pups were exposed to 100% hyperoxia (P0), along with their mothers, in cages in an airtight Plexiglas chamber (OxyCycler; Biospherix, Redfield, NY, USA) as described previously by the present inventors (Syed, Das et al., 2017, Leary, Das et al. 2019, Das, Acharya et al. 2020, relevant portions incorporated herein) for 4 consecutive days (till P4) and removed to RA on P5 to be recovered till P14, so as to emulate the human BPD condition. All pups were sacrificed on P14 for further experimental analyses. The pups without any hyperoxia exposure served as the corresponding RA (normoxia) controls.
Bronchoalveolar lavage fluid (BALF) Analysis. Pups were sacrificed on PN14, and the trachea was cannulated with a small-caliber needle by instilling PBS endotracheally at […] pressure for 15 minutes. Two volumes of 300 μL of cold 1×PBS were instilled, gently aspirated, and pooled. Samples were centrifuged at 1000×g for 10 minutes at 4° C. The supernatant was collected, and total protein was quantified using the Pierce™ BCA Protein Assay Kit (Fisher Scientific Co, Houston, TX). The total cell count was done using the TC20 cell counter (BioRad, Hercules, CA). Similar method was followed for analyzing the protein concentration in BAL fluid collected from preterm lambs.

[2] = tested on: human cord blood monocytes (CBMC); assay: Cytokines in human cord blood monocytes (CBMC); assay type: cell-based; details: compound alone (10 μM) or with LPS, compared with only LPS
Source text: IL-12p40, is a marker for the innate immune response to infection and is down regulated in CBMC.

[3] = tested on: hyperoxia-exposed BPD mouse model; assay: Hyperoxia-exposed BPD mouse model: dose response and lung morphometry; assay type: in vivo; details: mouse, in vivo
Method: Simultaneously, the AVR-48 nanosuspension formulation IN (0.11 mg/kg) was tested as well as in solution form, IP and IV (10 mg/kg) (through the facial vein), and confirmed that all routes of administration gave similar outcomes. […] From the PK study, as described above, the bioavailability of the drug in the plasma and lungs were similar when delivered as solution formulation via either IN or IP routes. As the goal of this study is to develop AVR-48 as a commercially viable and applicable therapeutic candidate for BPD, the IP route was selected as the preferred mode of drug delivery in neonatal murine pups, with the rationale that it would be easier to deliver the drug systemically to preterm babies IV, rather than the IN route. The results and outcome of all the routes of administration have been presented in a cumulative manner, as the endpoint was similar for all routes of administration. […] FIG. 1 is a dose response study of AVR-48 at different doses of […], given IP. ****p<0.0001. N=5-7 mice per group. 10 mg/kg (IP) was selected as the most efficacious dose. IP: intraperitoneal; Hyp: hyperoxia; BPD: Bronchopulmonary dysplasia.
Formulation of AVR-48 for efficacy and toxicokinetic studies. For the mouse dose response efficacy studies, AVR-48 was reconstituted in 0.9% sterile normal saline to give a final dose concentration of […] as a colorless solution, and injected IP (30 μl) on P2 and P4. The PLGA encapsulated AVR-48 or the GFP-tagged analog was resuspended in deionized sterile water to make a nanosuspension with final dose concentration of 0.025, 0.05 and 0.11 mg/kg/drop. The surfactant Curosurf® (Cheisi Parma, Italy), available commercially, was delivered IN at a volume of 3 μl per nostril, on P2 and P4. For the toxicokinetic study of AVR-48 in rat pups, a formulation of 10% DMSO, 20% tetraglycol, 20% PEG 400, and 50% sterile water was made fresh before administration (Shah, Das et al. 2021).
as §1
Histology, immunohistochemistry and immunofluorescence. Both the RA control and BPD mice were anesthetized (using an overdose of a cocktail of xylazine-ketamine) and lung and heart tissues were harvested after perfusion and fixed overnight in 4% paraformaldehyde. Fixed tissues were then washed in fresh PBS, dehydrated using 70% ethanol, cleared, and embedded in paraffin to be sectioned and stained with hematoxylin and eosin (H&E) for lung morphometry or immunohistochemistry/immunofluorescence as previously described (Leary, Das et al. 2019, Das, Achaiya et al. 2020, Das, Curstedt et al. 2020). Immunofluorescence staining was done for Ki67 (Abcam, 1:10) and Von Wilebrand Factor (vWF-DAKO, 1:100) on lung paraffin sections following the protocol as described earlier (Leary, Das et al. 2019) while TUNEL staining was done following the manufacturer's instructions (Roche).
Morphometry and quantification. To study chord length, septal thickness and radial alveolar count in the lungs, RV, LV and IVS thickness, 5 μm-thick left-lobe lung and heart paraffin-embedded sections were stained with H&E. Multiple randomly chosen areas (at least 10 areas) from each section were photographed using 100× total magnification. […]

[4] = biological target: T1, TLR4 (Homo sapiens, UniProt O00206); assay: TLR4 assay: unbound TLR4 ELISA in PMA-stimulated THP-1 cell lysates; assay type: binding; details: THP-1 human monocyte cells
T1 construct: Cell lysates were prepared, total protein was quantified and treated with different concentrations; host or cells: THP-1 cells stimulated with PMA for 48 h, then lysed
Method: FIG. 26A, TLR4 assay: 1×10^5 THP cells (ATCC) were seeded in 24 well plates and stimulated with phorbol myristyl actetate (PMA, 200 ng/mL) for 48 h. Cell lysates were prepared, total protein was quantified and treated with different concentrations (4, 16, 62.5 and 250 μM) of the AVR-48 for 2 h. ELISA was performed after to assess unbound TLR4 following manufacturer's instruction (Raybiotech). TLR4 IC50 of the AVR-48 was calculated using GraphPad Prism7.04.

[5] = Oral PK of nanomilled formulations in adult SD rats; assay type: in vivo, rat; details: rat, in vivo, po, 100 mg/kg
Method: The test item, the stabilizer (HPC-SSL) and the surfactant (SDS) were accurately weighed and transferred in a 15-mL amber glass jar charged with 6 mL of yttrium-stabilized zirconia beads (0.8 mm). The suspension was brought to final weight with water in order to achieve the desired final concentration. The formulation was mixed using a vortex for at least 1 minute and then homogenized using a roller mill (Unitized Jar Mill, Model 755 RMV from U.S. Stoneware (purchased from Fisher Scientific Canada cat #08-381-1) at 50 rpm for 48 hours.
For the animal study, the suspensions prepared at 50 mg/mL were diluted to 10 mg/mL using a blank vehicle prepared using the same proportions of excipients as those indicated in Table I. By diluting the concentrated suspension of AVR-84 a clear solution was obtained whereas for AVR-48 the solution was a homogeneous cloudy solution.
Animals and dosing: The male SD rats (N=3) were obtained from Charles River. Each animal was weighed before the administration of the test item. […] At the specified time points, t=15′, 30′, 1 h, 2 h, 3 h, 4 h, 6 h, 8 h and 24 h (N=3), blood (100 μL) was collected via the saphenous vein using MINIVETTE® POCT K3-EDTA. The blood samples were centrifuged for 10 min at 965 g and 4° C. within 30 min of collection, to obtain plasma. Plasma samples were kept frozen at −80° C. The plasma samples were thawed on ice and kept on ice during the sample preparation. Thirty μL of plasma samples were mixed with 75 μL of precipitation solution (80% acetonitrile and 20% methanol containing IS) was added. Samples were mixed and centrifuged at 3500 rpm for 10 min at 4° C. Forty μL of the supernatant was transferred to a 96 well plate, and 80 μL of water+0.1% formic acid was added and analyzed using the in house developed HPLC method.

T1 sequence (O00206 24-839): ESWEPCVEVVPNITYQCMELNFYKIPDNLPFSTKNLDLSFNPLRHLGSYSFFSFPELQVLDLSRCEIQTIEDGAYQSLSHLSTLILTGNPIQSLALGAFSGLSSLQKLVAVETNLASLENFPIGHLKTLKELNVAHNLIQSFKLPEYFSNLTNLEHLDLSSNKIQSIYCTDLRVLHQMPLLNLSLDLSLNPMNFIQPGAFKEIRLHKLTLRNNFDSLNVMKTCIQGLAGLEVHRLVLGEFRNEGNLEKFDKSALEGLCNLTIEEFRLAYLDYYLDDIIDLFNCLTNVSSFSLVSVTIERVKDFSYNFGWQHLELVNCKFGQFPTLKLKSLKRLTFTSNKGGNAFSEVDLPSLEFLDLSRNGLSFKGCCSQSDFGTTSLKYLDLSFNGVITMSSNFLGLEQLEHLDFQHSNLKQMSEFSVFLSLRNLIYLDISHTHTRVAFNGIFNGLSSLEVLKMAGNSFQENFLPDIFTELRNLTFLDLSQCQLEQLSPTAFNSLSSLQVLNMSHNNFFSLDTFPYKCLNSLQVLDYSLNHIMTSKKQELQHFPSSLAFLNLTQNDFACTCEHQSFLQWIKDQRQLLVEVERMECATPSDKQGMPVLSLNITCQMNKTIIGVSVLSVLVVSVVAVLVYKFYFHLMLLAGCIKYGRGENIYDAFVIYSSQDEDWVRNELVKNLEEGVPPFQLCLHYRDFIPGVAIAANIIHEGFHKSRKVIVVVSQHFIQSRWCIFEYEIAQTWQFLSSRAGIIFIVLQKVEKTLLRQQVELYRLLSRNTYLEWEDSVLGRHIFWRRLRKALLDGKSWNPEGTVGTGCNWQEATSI

Structure (SMILES): CCOC(=O)C1=CCCC[C@H]1S(=O)(=O)Nc1ccc(F)cc1Cl [TAK 242, reference compound]
- total inflammatory cells in BALF [1]: did not affect
- IL-12p40 response [2]: decrease the LPS induced increase in IL-12p40 level

- binding to TLR4 [4]: bind TLR4
Structure (SMILES): CC(=O)NC1[C@H](Oc2ccc(C(=O)N[C@@H]3OC(CO)[C@@H](O)[C@H](O)C3NC(C)=O)cc2)OC(CO)[C@@H](O)[C@@H]1O (stereo partly shown) [Compound 3]
- inflammatory cytokines in neonatal mouse pups with BPD [3]: decrease inflammatory cytokines

- Cmax [5]: 4.56 µM
- Tmax [5]: 0.5 ± 0.0 h
- half-life (T v2) [5]: 1.66 ± 1.0 h
- plasma concentration profile [5]: linear decline in drug concentration
Structure (SMILES): CC(=O)N[C@@H]1C(Oc2ccc3nonc3c2)OC(CO)C(O)C1O (stereo partly shown) [AVR-84]

- binding to TLR4 [4]: bind TLR4
Structure (SMILES): CC(=O)N[C@@H]1C(Oc2ccc(B3OC(C)(C)C(C)(C)O3)cc2)OC(CO)C(O)C1O (stereo partly shown) [Compound 32]
- inflammatory cytokines in neonatal mouse pups with BPD [3]: decrease inflammatory cytokines
